For data set [1], the target named is T1, Vitamin D3 receptor (Homo sapiens) (UniProt P11473).
T1 sequence (whole entry): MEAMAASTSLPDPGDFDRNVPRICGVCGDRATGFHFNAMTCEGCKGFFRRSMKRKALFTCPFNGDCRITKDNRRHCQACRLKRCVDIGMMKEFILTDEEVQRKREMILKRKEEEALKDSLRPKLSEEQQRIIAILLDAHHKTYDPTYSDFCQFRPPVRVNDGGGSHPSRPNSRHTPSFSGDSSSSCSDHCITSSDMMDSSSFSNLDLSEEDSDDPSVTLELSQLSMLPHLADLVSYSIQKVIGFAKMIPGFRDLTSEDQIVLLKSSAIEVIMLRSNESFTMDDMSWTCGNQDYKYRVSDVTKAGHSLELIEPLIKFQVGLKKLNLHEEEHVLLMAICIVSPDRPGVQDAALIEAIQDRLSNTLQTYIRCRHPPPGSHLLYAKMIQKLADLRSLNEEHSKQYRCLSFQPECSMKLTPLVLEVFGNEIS
In words: Antagonist activity at VDR in human HeLa cells assessed as decrease in p62 expression at 10 uM in presence or absence of calcitriol measured after 4 hrs by western blot analysis. The following applies: filed as antagonist. It counts as cell-based. Background: A western blot detects proteins with antibodies after separation by electrophoresis.

For the next data set, the system named is HeLa. In words: Cytotoxicity against human HeLa cells assessed as reduction in cell viability measured after 24 hrs by methylene blue staining based assay.
Data set [2] addresses T1, Vitamin D3 receptor (Homo sapiens). Kind of data set: Antagonist activity against calcitriol-activated VDR signalling in human HeLa cells assessed as inhibition of VDR signalling incubated with calcitriol for 1 hr followed by compound addition and measured after 24 hrs by luciferase reporter gene assay. Type of data set: cell-based. (Reporter assays use an easily measured gene product as a stand-in for the process of interest.)

For data set [3], the target named is Signal transducer and activator of transcription 3 (Homo sapiens) (UniProt P40763). In words: Inhibition of IFN-gamma stimulated STAT3 signalling in human HeLa cells incubated for 1 hr withIFN-gamma followed by compound addition and measured after 24 hrs by luciferase reporter gene assay. It counts as cell-based.
In data set [4] the target is T1, Vitamin D3 receptor (Homo sapiens). In words: Antagonist activity at VDR in human HeLa cells assessed as reduction in CYP27B1 mRNA expression at 10 uM measured after 4 hrs by […]. It counts as cell-based. The following applies: filed as antagonist.
The target is the same in data set [5]. In words: Antagonist activity at VDR in human HeLa cells assessed as decrease in mTOR phosphorylation at Ser2448 residue at 10 uM in presence or absence of calcitriol measured after 4 hrs by western blot analysis. It counts as cell-based.
The target is the same in data set [6]. In words: Antagonist activity at VDR in human HeLa cells assessed as increase in ratio of LC3-II to LC-I at 10 uM in presence or absence of calcitriol measured after 4 hrs by western blot analysis. It counts as cell-based. The following applies: filed as antagonist.
Data set [7] has as its target Nuclear factor NF-kappa-B complex (Homo sapiens) (UniProt Q00653+P19838+Q04206). In words: Inhibition of TNF-alpha induced NF-kappaB signalling in human HeLa cells incubated with TNF-alpha for 1 hr followed by compound addition and measured after 24 hrs by luciferase reporter gene assay. Type of data set: cell-based.
The subject of data set [8] is N2a. Kind of data set: Upregulation of SREBP2 cleavage in MPP+-induced mouse N2a cells assessed as increase in active form of phospho-SREBP2 level measured up to 6 hrs by western blot analysis. It counts as functional.
The test system of data set [9] is N2a. Kind of data set: Induction of autophagy in MPP+-induced mouse N2a cells infected with pAde-LC3-EGFP- mCherry assessed as formation of mCherry foci by measuring increased in red fluorescence at 10 uM measured after 4 hrs by Hoechst staining based confocal microscope analysis. Type of data set: functional, cell-based.
The subject of data set [10] is N2a. Kind of data set: Induction of autophagy in MPP+-induced mouse N2a cells expressing myc-VDR plasmid assessed as LC3 lipidation at 10 uM measured after 6 hrs by western blot analysis. It counts as functional, cell-based.
Data set [11] concerns N2a. Kind of data set: Inhibition of lipid synthesis related gene expression in MPP+-induced mouse N2a cells assessed as reduction in ACACA gene expression measured after 6 hrs by qRT-PCR analysis. It counts as functional. (Quantitative PCR measures a nucleic acid by following its amplification.)
The subject of data set [12] is N2a. In words: Inhibition of lipid synthesis related gene expression in MPP+-induced mouse N2a cells assessed as reduction in Insig-1 gene expression measured after 6 hrs by qRT-PCR analysis. It counts as functional.
For data set [13], the system named is N2a. In words: Inhibition of lipid synthesis related gene expression in MPP+-induced mouse N2a cells assessed as reduction in Scap gene expression measured after 6 hrs by qRT-PCR analysis. It counts as functional.
Data set [14] has as its system SH-SY5Y. In words: Neuroprotective activity against SNCA-induced neurotoxicity in human SH-SY5Y cells transfected with adenovirus expressing […] SNCA assessed as reduction in […] SNCA expression at 10 uM measured after 6 hrs by western blot analysis. Type of data set: functional, cell-based.
The subject of data set [15] is N2a. In words: Induction of autophagy in MPP+-induced mouse N2a cells transfected with Atg7 shRNA assessed as increase in LC3-II expression at 10 uM measured after 6 hrs by western blot analysis. It counts as functional, cell-based.
Data set [16] has as its system N2a. Kind of data set: Upregulation of SREBP2 cleavage in MPP+-induced mouse N2a cells assessed as increase in active cleaved form of SREBP2 level measured up to 6 hrs by western blot analysis. Type of data set: functional.
Data set [17] concerns N2a. In words: Effect on SNCA oligomerization in mouse N2a cells transfected with Syn-luc1 and Syn-luc2 plasmids assessed as reduction in SNCA self-oligomerization by measuring luciferase activity at 10 to 20 uM measured after 6 hrs by bioluminescent protein-fragment complementation assay. It counts as functional, cell-based. The following applies: dose 10-20 µM.
Data set [18] has as its system N2a. In words: Inhibition of lipid synthesis related gene expression in MPP+-induced mouse N2a cells assessed as reduction in Fasn gene expression measured after 6 hrs by qRT-PCR analysis. Type of data set: functional.
Data set [19] has as its system N2a. In words: Inhibition of lipid synthesis related gene expression in MPP+-induced mouse N2a cells assessed as reduction in Ldr gene expression measured after 6 hrs by qRT-PCR analysis. Type of data set: functional.
Data set [20] has as its system SH-SY5Y. Kind of data set: Neuroprotective activity against A53T SNCA-induced cytotoxicity in human SH-SY5Y cells assessed as decrease in A53T SNCA induced LDH release at 10 uM by LDH assay. It counts as functional, cell-based.
In data set [21] the test system is N2a. Kind of data set: Induction of autophagy in MPP+-induced mouse N2a cells assessed as increase in LC3-II expression at 10 uM measured after 6 hrs by western blot analysis. It counts as functional, cell-based.
Data set [22] deals with T1, Vitamin D3 receptor (Homo sapiens). Kind of data set: Antagonist activity at VDR in human HeLa cells assessed as reduction in CYP27B1 mRNA expression at 10 uM in presence of calcitriol measured after 4 hrs by […]. Type of data set: cell-based.

The source made the active and inactive calls. No cut-off for these calls is given here.

These results are taken from ChEMBL document CHEMBL5053541, “Andrographolide derivative as antagonist of vitamin D receptor to induce lipidation of microtubule associate protein 1 light chain 3 (LC3)” (Bioorg Med Chem, 2021).

Sequence of Nuclear factor NF-kappa-B complex (Homo sapiens) (P19838 whole entry, looked up): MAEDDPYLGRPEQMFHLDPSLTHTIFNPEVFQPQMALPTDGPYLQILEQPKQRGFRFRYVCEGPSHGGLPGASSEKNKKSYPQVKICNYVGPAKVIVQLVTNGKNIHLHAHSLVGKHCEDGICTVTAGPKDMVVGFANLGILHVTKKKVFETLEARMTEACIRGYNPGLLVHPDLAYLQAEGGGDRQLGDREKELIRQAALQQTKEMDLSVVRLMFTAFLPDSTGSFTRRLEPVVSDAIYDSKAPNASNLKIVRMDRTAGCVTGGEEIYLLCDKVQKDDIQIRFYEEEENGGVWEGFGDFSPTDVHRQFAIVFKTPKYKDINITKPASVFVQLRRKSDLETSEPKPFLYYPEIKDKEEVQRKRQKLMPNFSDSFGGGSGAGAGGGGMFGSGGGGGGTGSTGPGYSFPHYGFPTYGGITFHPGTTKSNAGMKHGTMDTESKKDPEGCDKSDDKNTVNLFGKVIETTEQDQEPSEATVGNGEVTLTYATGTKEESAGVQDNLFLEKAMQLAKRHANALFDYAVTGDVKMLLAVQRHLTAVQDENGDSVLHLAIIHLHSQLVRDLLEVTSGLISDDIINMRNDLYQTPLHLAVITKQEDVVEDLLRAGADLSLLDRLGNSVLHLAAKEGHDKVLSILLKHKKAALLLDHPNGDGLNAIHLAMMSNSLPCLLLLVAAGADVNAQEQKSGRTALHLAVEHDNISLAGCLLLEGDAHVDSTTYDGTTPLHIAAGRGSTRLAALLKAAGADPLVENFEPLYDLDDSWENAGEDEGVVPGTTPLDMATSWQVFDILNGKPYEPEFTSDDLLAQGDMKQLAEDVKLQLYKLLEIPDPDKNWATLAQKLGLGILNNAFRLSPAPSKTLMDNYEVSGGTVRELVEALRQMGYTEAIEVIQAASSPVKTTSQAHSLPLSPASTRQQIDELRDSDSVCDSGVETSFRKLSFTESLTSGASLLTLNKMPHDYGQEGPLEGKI
Sequence of Nuclear factor NF-kappa-B complex (Homo sapiens) (Q00653 whole entry, looked up): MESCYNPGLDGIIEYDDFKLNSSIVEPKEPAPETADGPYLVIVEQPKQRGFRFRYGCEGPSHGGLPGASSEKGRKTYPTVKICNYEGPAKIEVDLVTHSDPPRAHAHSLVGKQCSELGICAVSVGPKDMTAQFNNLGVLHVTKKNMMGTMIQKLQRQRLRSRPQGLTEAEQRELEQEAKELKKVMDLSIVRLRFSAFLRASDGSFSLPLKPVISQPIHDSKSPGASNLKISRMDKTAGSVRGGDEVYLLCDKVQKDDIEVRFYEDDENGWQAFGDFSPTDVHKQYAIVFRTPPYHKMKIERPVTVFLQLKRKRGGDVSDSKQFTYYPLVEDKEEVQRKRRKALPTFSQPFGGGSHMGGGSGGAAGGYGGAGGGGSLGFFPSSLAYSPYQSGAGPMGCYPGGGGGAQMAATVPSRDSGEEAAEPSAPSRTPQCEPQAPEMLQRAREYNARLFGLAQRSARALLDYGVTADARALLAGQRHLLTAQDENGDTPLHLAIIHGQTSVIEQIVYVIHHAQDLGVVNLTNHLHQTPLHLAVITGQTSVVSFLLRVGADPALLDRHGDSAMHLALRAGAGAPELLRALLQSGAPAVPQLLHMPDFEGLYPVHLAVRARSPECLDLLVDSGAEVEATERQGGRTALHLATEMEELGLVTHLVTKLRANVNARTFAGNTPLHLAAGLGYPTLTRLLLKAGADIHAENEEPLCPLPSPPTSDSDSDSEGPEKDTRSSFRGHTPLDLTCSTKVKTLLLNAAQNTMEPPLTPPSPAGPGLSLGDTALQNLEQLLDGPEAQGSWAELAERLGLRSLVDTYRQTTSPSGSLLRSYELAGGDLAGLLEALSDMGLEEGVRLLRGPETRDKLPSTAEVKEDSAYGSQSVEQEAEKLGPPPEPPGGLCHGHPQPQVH
Sequence of Nuclear factor NF-kappa-B complex (Homo sapiens) (Q04206 whole entry, looked up): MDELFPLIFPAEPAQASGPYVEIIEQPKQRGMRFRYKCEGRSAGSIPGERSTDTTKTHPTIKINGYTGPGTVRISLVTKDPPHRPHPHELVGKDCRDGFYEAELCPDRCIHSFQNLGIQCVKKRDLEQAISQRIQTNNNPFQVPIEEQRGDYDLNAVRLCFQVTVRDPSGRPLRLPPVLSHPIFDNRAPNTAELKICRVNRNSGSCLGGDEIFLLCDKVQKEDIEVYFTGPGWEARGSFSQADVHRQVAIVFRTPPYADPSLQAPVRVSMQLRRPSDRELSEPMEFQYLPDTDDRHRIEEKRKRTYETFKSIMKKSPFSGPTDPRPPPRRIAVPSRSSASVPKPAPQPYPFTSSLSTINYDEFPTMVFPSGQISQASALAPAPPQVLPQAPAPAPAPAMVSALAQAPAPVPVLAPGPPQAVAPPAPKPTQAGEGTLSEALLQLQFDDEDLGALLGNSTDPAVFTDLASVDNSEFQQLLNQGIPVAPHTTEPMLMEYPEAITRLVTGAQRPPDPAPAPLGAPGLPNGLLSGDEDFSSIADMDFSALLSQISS
Sequence of Signal transducer and activator of transcription 3 (Homo sapiens) (P40763 whole entry): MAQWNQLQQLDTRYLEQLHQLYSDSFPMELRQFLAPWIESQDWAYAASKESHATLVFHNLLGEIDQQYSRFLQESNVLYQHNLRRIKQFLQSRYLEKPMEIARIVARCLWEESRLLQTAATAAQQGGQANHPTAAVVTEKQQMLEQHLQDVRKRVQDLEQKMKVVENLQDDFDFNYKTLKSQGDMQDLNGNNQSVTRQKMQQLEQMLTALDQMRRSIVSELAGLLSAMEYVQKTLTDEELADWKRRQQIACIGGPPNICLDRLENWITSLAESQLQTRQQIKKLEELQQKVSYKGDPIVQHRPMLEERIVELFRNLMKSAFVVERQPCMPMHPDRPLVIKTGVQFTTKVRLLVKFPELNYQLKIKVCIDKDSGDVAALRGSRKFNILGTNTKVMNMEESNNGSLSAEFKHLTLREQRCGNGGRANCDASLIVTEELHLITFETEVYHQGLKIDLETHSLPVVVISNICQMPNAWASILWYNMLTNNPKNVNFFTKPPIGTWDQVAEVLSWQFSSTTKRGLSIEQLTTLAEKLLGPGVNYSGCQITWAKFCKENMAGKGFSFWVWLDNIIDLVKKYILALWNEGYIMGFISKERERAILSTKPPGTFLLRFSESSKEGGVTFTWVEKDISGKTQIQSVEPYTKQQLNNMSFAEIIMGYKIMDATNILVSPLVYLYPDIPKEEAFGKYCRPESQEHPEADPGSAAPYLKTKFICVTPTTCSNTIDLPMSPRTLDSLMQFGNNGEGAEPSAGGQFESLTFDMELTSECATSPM

Consider `C=C1CC[C@@H]2[C@]3(C)COC(C)(C)O[C@@H]3CC[C@@]2(C)[C@@H]1C/C=C1/C(=O)OC[C@H]1O[Si](CC)(CC)CC`, for which the result in data set [1] was Active. Moreover, the Activity result in the data set on HeLa is recorded as “Non-Toxic”. Moreover, the inhibition entry in data set [2] and in [3] was “inactive” throughout.
Regarding `C=C1CC[C@@H]2[C@]3(C)COC(C)(C)O[C@@H]3CC[C@@]2(C)[C@@H]1C/C=C1/C(=O)OC[C@H]1O[Si](C)(C)C(C)(C)C`, the Activity entry with HeLa is reported as “Non-Toxic”. Further, the inhibition entry in [2] and in data set [3] was “inactive” throughout.
Turning to `C=C1CC[C@@H]2[C@]3(C)COC(C)(C)O[C@@H]3CC[C@@]2(C)[C@@H]1C/C=C1/C(O)OC[C@H]1O[Si](CC)(CC)CC` (stereo partly drawn), the inhibition entry in [4], in data set [5] (filed as antagonist) and in data set [2] (filed as antagonist) was “Active” throughout. Further, the Activity entry in the data set on HeLa was “Non-Toxic”. Besides, the outcome in [6] was Active. Besides, the inhibition entry in [3] is “inactive”.
As for `C=C1CC[C@@H]2[C@]3(C)COC(C)(C)O[C@@H]3CC[C@@]2(C)[C@@H]1C/C=C(/C=O)[C@@H](COC(C)=O)O[Si](C)(C)C(C)(C)C`, the inhibition entry in data set [4], in data set [5] (filed as antagonist) and in data set [2] (filed as antagonist) was “Active” throughout. For the same compound, the Activity entry in the data set on HeLa is reported as “Non-Toxic”. Also, the inhibition entry in [3] was “inactive”.
Take `C=C1CC[C@@H]2[C@]3(C)COC(C)(C)O[C@@H]3CC[C@@]2(C)[C@@H]1C/C=C1/C(O)OC[C@H]1O[Si](C)(C)C(C)(C)C` (stereo partly drawn): the inhibition result in [7], in [2] and in data set [3] was “inactive” each time. In the data set with HeLa, the Activity entry is recorded as “Non-Toxic”.
`C=C1CC[C@@H]2[C@]3(C)COC(C)(C)O[C@@H]3CC[C@@]2(C)[C@@H]1C/C=C(/CO)[C@@H](CO)O[Si](CC)(CC)CC`: the inhibition result in data set [7] and in [2] (filed as antagonist) was “Active” each time. Further, the Activity result with HeLa was “Non-Toxic”. The inhibition entry in data set [3] is “inactive”.
In the case of `C=C1CC[C@@H]2[C@]3(C)COC(C)(C)O[C@@H]3CC[C@@]2(C)[C@@H]1C/C=C(/CO)[C@@H](CO)O[Si](C)(C)C(C)(C)C`, the inhibition result in data set [7], in [2] and in data set [3] was “inactive” each time. The Activity result with HeLa is listed as “Non-Toxic”.
As to `C=C1CC[C@@H]2[C@](C)(COC(C)=O)[C@H](O)CC[C@@]2(C)[C@@H]1C/C=C(/COC(C)=O)[C@@H](COC(C)=O)O[Si](C)(C)C(C)(C)C`, the result in the data set on N2a [8], in the data set with N2a [9], in the data set on SH-SY5Y [14], in the data set with N2a [15], with N2a [16] and in the data set on N2a [17] was Active. For the same compound, the outcome (in [6]; with SH-SY5Y [20]; in the data set with N2a [21]) was Active. In addition, the inhibition result in data set [4] and in data set [2] (filed as antagonist) was “Active” in each case. Moreover, the result in the data set with N2a [10], with N2a [11], in the data set with N2a [12], with N2a [13], in the data set with N2a [18] and in the data set on N2a [19] was inactive. In addition, the inhibition result in data set [5] and in data set [3] was “inactive” throughout. Besides, the Activity result in the data set on HeLa is given as “Non-Toxic”.
Take `C=C1CC[C@@H]2[C@](C)(CO)[C@H](O)CC[C@@]2(C)[C@@H]1C/C=C(/COC(C)=O)[C@@H](COC(C)=O)O[Si](C)(C)C(C)(C)C`: the inhibition result in [5] (filed as antagonist) and in [2] (filed as antagonist) was “Active” throughout. Further, the Activity entry in the data set with HeLa is on record as “Non-Toxic”. Also, the result in [22] was inactive. The result in data set [6] was Active. The inhibition entry in [3] was “inactive”.
As for `C=C1CC[C@@H]2[C@](C)(COC(C)=O)[C@H](OC(C)=O)CC[C@@]2(C)[C@@H]1C/C=C(/COC(C)=O)[C@@H](COC(C)=O)O[Si](C)(C)C(C)(C)C`, in the data set with HeLa, the Activity result is recorded as “Non-Toxic”. The inhibition entry in data set [2] and in data set [3] was “inactive” throughout.
For `C=C1CC[C@@H]2[C@]3(C)COC(C)(C)O[C@@H]3CC[C@@]2(C)[C@@H]1C/C=C(/COC(C)=O)[C@@H](COC(C)=O)O[Si](C)(C)C(C)(C)C`, the Activity result in the data set on HeLa is listed as “Non-Toxic”. Further, the inhibition result in data set [2] and in data set [3] was “inactive” throughout.
In the case of `C=C1CC[C@@H]2[C@](C)(CO)[C@H](O)CC[C@@]2(C)[C@@H]1C/C=C1/C(O)OC[C@H]1O[Si](CC)(CC)CC` (stereo partly drawn), the Activity entry in the data set with HeLa is given as “Non-Toxic”. Besides, the inhibition result in data set [2] and in data set [3] was “inactive” each time.
As to `C=C1CC[C@@H]2[C@](C)(CO)[C@H](O)CC[C@@]2(C)[C@@H]1C/C=C1/C(O)OC[C@H]1O[Si](C)(C)C(C)(C)C` (stereo partly drawn), the Activity entry in the data set on HeLa is given as “Non-Toxic”. For the same compound, the inhibition result in data set [2] (filed as antagonist) is “Active”. Further, the inhibition result in data set [3] is “inactive”.
